In ChEMBL document CHEMBL1157921, “Selective targeting of 2'-deoxy-5-fluorouridine to urokinase positive malignant cells in vitro” (Bioorg Med Chem Lett, 2010) one finds IC50 and inhibition data, which are given here for two compounds.

Calls of active or inactive are those of the source. The rule behind the calls is not given here.

Holding throughout (assay type): functional, cell-based
For assay [1], the system named is MDA-MB-231. Put plainly: Cytotoxicity against human MDA-MB-231 cells overexpressing urokinase plasminogen activator.
Assay [2] deals with MCF7. Put plainly: Cytotoxicity against human MCF7 cells overexpressing urokinase plasminogen activator at > 20.3 uM.
Assay [3] relates to MCF7. The assay is described as follows: Cytotoxicity against human MCF7 cells overexpressing urokinase plasminogen activator at > 144 uM.

For the compound `O=c1[nH]c(=O)n([C@H]2C[C@H](O)[C@@H](CO)O2)cc1F` [FLOXURIDINE], it took 210 nM to reach half-maximal inhibition in assay [1] (IC50). For the same compound, the inhibition result in assay [2] is “inactive”.

`O=C(O)CCC(=O)O[C@H]1C[C@H](n2cc(F)c(=O)[nH]c2=O)O[C@@H]1CO`: the inhibition entry in assay [3] is “inactive”.
